System: drug-resistant Mycobacterium tuberculosis
Conditions: Mycobacterium tuberculosis resistant to PAS, streptomycin, INH; peptide 10 micrograms per ml; seven days

In the case of CSCC[C@H](NC(=O)[C@H](CCCNC(=N)N)NC(=O)[C@H](Cc1ccc(O)cc1)NC(=O)[C@@H]1CCCN1C(=O)CNC(=O)[C@H](CCC(=O)O)NC(=O)[C@H](CC(=O)O)NC(=O)[C@H](CCCCN)NC(=O)[C@H](CCCCN)NC(=O)[C@H](CCC(=O)O)NC(=O)[C@H](C)N)C(=O)N[C@@H](CCC(=O)O)C(=O)N[C@@H](Cc1c[nH]cn1)C(=O)N[C@@H](Cc1ccccc1)C(=O)N[C@@H](CCCNC(=N)N)C(=O)N[C@@H](Cc1c[nH]c2ccccc12)C(=O)NCC(=O)N[C@@H](CO)C(=O)N1CCC[C@H]1C(=O)N1CCC[C@H]1C(=O)N[C@@H](CCCCN)C(=O)N[C@@H](CC(=O)O)C(=O)O [Beta MSH], the “% inhibition” value is reported as 0.0%.
